Laboratory results taken from ChEMBL document CHEMBL5291721, “A preclinical secondary pharmacology resource illuminates target-adverse drug reaction associations of marketed drugs” (Nat Commun, 2023).

How the values were obtained:
[1] = biological target: Cannabinoid receptor 1 (Homo sapiens, UniProt P21554); type: functional, cell-based
[2] = biological target: T1, Muscarinic acetylcholine receptor M1 (Homo sapiens, UniProt P11229); type: functional
T1 sequence (P11229 whole entry): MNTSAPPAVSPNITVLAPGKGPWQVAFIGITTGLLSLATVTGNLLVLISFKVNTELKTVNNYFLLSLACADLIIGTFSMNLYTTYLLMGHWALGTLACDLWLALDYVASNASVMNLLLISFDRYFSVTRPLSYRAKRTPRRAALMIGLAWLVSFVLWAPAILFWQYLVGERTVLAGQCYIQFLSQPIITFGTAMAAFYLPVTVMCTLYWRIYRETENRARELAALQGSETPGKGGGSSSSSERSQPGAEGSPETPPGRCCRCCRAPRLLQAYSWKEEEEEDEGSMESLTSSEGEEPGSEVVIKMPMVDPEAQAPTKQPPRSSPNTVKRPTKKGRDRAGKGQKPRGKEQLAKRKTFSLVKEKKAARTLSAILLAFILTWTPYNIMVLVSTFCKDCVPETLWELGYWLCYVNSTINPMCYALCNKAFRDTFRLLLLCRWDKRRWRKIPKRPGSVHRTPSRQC

[3] = biological target: T2, Adenosine receptor A1 (Homo sapiens, UniProt P30542)
T2 sequence (P30542 whole entry): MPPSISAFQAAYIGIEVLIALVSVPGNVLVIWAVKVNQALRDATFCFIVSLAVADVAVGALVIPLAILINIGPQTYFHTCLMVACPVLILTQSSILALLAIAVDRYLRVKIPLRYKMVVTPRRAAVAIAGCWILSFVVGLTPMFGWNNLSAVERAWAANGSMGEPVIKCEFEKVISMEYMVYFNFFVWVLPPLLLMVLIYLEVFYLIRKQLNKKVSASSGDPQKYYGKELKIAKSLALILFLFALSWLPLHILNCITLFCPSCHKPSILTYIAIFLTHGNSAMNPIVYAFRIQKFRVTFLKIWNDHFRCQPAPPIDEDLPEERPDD

[4] = biological target: T3, Alpha-1A adrenergic receptor (Homo sapiens, UniProt P35348); type: functional, cell-based
T3 sequence (P35348 whole entry): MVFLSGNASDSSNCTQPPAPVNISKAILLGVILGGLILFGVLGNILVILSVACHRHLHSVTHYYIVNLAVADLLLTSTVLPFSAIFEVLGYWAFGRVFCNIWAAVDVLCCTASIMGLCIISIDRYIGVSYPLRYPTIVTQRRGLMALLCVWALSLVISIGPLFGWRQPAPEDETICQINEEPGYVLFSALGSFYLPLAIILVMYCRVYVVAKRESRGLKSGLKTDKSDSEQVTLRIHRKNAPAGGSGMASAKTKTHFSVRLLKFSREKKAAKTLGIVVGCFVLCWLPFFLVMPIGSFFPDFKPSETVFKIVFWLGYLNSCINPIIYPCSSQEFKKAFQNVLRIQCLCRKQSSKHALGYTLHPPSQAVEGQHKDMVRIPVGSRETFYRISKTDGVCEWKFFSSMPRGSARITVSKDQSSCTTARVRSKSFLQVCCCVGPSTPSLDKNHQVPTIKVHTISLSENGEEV

[5] = biological target: T4, B2 bradykinin receptor (Homo sapiens, UniProt P30411)
T4 sequence (P30411 whole entry): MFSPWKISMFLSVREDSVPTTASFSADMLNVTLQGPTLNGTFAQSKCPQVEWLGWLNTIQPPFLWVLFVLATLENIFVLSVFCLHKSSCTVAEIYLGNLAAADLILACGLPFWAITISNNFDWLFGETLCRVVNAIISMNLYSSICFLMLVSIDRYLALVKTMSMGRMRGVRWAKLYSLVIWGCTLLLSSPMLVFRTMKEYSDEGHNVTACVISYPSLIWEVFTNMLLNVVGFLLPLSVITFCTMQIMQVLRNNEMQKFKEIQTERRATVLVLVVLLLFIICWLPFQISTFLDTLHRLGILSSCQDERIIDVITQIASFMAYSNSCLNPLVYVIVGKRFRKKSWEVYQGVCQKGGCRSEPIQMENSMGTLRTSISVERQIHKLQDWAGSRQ

[6] = biological target: Muscarinic acetylcholine receptor M3 (Homo sapiens, UniProt P20309)
[7] = biological target: Beta-2 adrenergic receptor (Homo sapiens, UniProt P07550)
[8] = biological target: T5, Cholecystokinin receptor type A (Homo sapiens, UniProt P32238)
T5 sequence (P32238 whole entry): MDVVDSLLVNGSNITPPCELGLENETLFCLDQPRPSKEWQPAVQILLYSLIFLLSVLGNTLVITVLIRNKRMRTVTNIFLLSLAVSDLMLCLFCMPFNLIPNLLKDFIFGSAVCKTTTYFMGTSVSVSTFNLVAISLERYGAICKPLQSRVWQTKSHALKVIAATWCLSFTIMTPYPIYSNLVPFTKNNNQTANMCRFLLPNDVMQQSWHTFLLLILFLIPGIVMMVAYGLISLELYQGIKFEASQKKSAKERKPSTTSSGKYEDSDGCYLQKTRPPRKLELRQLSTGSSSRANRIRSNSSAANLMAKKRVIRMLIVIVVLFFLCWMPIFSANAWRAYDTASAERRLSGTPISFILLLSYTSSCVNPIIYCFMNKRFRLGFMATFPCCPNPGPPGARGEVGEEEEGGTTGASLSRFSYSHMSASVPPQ

[9] = biological target: T6, Alpha-2B adrenergic receptor (Homo sapiens, UniProt P18089)
T6 sequence (P18089 whole entry): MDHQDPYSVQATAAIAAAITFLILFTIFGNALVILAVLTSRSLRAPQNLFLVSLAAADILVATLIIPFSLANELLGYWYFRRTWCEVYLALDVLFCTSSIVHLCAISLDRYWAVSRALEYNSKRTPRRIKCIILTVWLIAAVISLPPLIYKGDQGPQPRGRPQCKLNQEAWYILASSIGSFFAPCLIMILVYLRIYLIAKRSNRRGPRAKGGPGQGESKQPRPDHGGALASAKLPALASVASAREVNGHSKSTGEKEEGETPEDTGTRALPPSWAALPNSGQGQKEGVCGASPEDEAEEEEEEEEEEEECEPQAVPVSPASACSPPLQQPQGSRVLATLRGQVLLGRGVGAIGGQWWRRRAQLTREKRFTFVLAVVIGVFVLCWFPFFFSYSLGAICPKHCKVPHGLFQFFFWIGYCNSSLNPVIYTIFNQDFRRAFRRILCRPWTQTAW

Measured: AC50
Further: assay procedure not described here.

Beta-2 adrenergic receptor, sequence (P07550 whole entry): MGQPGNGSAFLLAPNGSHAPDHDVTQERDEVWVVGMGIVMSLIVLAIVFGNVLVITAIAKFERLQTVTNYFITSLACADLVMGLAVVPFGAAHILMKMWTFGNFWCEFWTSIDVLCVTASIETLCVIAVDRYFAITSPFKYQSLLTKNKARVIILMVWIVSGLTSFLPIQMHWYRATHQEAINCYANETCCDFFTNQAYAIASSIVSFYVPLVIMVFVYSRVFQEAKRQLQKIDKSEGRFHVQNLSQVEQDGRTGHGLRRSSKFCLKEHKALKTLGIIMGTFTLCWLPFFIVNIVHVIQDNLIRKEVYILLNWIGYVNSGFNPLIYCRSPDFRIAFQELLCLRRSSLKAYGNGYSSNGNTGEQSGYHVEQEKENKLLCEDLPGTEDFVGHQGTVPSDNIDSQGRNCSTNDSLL
Cannabinoid receptor 1, sequence (P21554 whole entry): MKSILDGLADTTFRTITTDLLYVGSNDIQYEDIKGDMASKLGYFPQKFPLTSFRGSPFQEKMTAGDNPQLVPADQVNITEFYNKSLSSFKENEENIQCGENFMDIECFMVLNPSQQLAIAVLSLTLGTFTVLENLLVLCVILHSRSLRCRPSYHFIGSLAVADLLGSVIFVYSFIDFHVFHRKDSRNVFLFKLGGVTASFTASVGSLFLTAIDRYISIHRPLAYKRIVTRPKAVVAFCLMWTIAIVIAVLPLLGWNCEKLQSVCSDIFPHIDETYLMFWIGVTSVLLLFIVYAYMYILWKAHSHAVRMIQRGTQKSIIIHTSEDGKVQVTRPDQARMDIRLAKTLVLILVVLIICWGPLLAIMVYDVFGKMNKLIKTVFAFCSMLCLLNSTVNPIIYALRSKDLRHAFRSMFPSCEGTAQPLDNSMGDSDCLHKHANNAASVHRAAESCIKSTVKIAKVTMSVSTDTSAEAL
Muscarinic acetylcholine receptor M3, sequence (P20309 whole entry): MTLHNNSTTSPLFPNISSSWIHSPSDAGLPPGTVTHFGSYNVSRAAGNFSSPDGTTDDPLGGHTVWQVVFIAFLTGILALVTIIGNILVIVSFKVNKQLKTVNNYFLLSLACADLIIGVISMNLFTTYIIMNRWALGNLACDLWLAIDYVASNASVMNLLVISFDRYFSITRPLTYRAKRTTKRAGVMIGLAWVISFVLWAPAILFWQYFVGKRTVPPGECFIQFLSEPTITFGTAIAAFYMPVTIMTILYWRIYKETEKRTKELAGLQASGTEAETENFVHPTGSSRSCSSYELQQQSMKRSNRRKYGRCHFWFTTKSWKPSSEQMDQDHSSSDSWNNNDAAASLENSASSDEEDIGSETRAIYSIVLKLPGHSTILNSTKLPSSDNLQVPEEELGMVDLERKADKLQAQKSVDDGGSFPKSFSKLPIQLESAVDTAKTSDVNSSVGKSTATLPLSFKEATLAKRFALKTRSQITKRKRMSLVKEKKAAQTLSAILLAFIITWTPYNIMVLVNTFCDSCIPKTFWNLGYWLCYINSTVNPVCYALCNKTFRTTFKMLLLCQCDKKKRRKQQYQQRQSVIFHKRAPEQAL

Oc1cc(O)c(Cl)cn1
> 30 µM: [1] | [2] | [3] | [5] | [6] | [7] | [8] | [9]
26 µM: [4]

CC(C)N(CCCCOCC(=O)O)c1cnc(-c2ccccc2)c(-c2ccccc2)n1
> 30 µM: [1] | [2] | [3] | [4] | [6] | [7] | [9]
> 10 µM: [5] | [8]

C[N+]12CCC(CC1)C(OC(=O)C(O)(c1ccccc1)c1ccccc1)C2 (stereo not given)
> 30 µM: [1] | [3] | [4] | [5] | [7] | [8] | [9]
0.0019 µM: [6]
0.0031 µM: [2]

O=C(CCCN1CCC(O)(c2ccc(Br)cc2)CC1)c1ccc(F)cc1 [BROMPERIDOL]
> 30 µM: [1] | [3] | [5] | [7] | [8]
12 µM: [6]
20 µM: [2]
0.28 µM: [4]

CO/N=C(\C(=O)N[C@@H]1C(=O)N2C(C(=O)O)=CCS[C@H]12)c1csc(N)n1 [CEFTIZOXIME]
> 30 µM: [1] | [2] | [3] | [4] | [8]
> 10 µM: [5]

CO/N=C(\C(=O)N[C@@H]1C(=O)N2C(C(=O)O)=C(CSc3nc(=O)c(=O)[nH]n3C)CS[C@H]12)c1csc(N)n1 [CEFTRIAXONE]
> 30 µM: [1] | [2] | [3] | [4] | [5] | [6] | [8] | [9]

Oc1ccc(CCNCCCCCCNCCc2ccccc2)cc1O [DOPEXAMINE]
> 30 µM: [1] | [3] | [5] | [6] | [8]
3.8 µM: [7]
1.4 µM: [4]
14 µM: [2]
19 µM: [9]

CCN1CC(CCN2CCOCC2)C(c2ccccc2)(c2ccccc2)C1=O (stereo not given) [DOXAPRAM]
> 30 µM: [1] | [3] | [4] | [5] | [7] | [8]

CCc1cc2c(s1)-n1c(C)nnc1CN=C2c1ccccc1Cl [ETIZOLAM]
> 30 µM: [1] | [2] | [3] | [4] | [5] | [6] | [7] | [8] | [9]

CC/C=C\C/C=C\C/C=C\C/C=C\C/C=C\CCCC(=O)OCC [ICOSAPENT ETHYL]
> 30 µM: [1] | [2] | [3] | [4] | [5] | [6] | [7] | [8] | [9]

CN1CCN=C(c2ccccc2)c2cc(Cl)ccc21 [MEDAZEPAM]
19 µM: [4]
> 30 µM: [1] | [2] | [3] | [5] | [6] | [7] | [8] | [9]

O=C(NCCO[N+](=O)[O-])c1cccnc1 [NICORANDIL]
> 30 µM: [1] | [2] | [3] | [4] | [5] | [6] | [8] | [9]

CO[C@H]1C[C@H](O[C@H]2CC[C@@]3(C)[C@H](CC[C@@H]4[C@@H]3CC[C@]3(C)[C@@H](C5=CC(=O)OC5)[C@@H](OC(C)=O)C[C@]43O)C2)O[C@@H](C)[C@@H]1O [OLEANDRIN]
> 30 µM: [1] | [2] | [4] | [6] | [9]

C[C@]12C/C(=C/O)C(=O)C[C@@H]1CC[C@@H]1[C@@H]2CC[C@@]2(C)[C@H]1CC[C@]2(C)O [OXYMETHOLONE]
> 30 µM: [1] | [3] | [4] | [5] | [7] | [8]

COc1cc2[nH]c(C)c(CCN3CCN(c4ccccc4)CC3)c2cc1OC [OXYPERTINE]
0.25 µM: [9]
> 30 µM: [1] | [2] | [3] | [5] | [6] | [8]

c1ccc(C2(N3CCCCC3)CCCCC2)cc1 [PHENCYCLIDINE]
> 30 µM: [1] | [2] | [3] | [4] | [5] | [6] | [8]

COc1cc(C(=O)OCc2cccc(COC(=O)c3cc(OC)c(OC)c(OC)c3)n2)cc(OC)c1OC [PIROZADIL]
> 30 µM: [1] | [2] | [3] | [5] | [6] | [8] | [9]

CCN1CCCC1CNC(=O)c1cc(S(=O)(=O)CC)ccc1OC (stereo not given) [SULTOPRIDE]
> 30 µM: [1] | [2] | [3] | [5] | [6] | [7] | [8]
10 µM: [9]

C=CCN1CCc2nc(N)sc2CC1 [TALIPEXOLE]
> 30 µM: [1] | [2] | [3] | [5] | [6] | [8]

COc1cc(C(=O)NC2CCCNC2)cc(OC)c1OC (stereo not given) [TROXIPIDE]
> 30 µM: [1] | [3] | [4] | [5] | [7] | [8]

CC(C)(C)NCC(O)c1ccccc1Cl (stereo not given) [TULOBUTEROL]
> 30 µM: [1] | [2] | [3] | [4] | [5] | [6] | [8] | [9]

CCCCCCCC(=O)CC[C@@H]1[C@@H](C/C=C\CCCC(=O)OC(C)C)[C@@H](O)C[C@H]1O [UNOPROSTONE ISOPROPYL]
> 30 µM: [2]
